Assay results taken from ChEMBL document CHEMBL1158031, “Biscembranes from the soft coral Sarcophyton glaucum” (J Nat Prod, 2006).
Activity calls are given as the source filed them. The rule behind the calls is not given here.

Assays:
[1] = system: HL-60; assay: Cytotoxicity against human HL-60 upto 100 uM; format: functional, cell-based
[2] = system: HL-60; assay: Cytotoxicity against human HL-60; format: functional, cell-based

## COC(=O)[C@]12CC(=O)[C@H](C(C)C)CC(=O)/C(C)=C/CC/C(C)=C/C(=O)[C@H]1CC(C)=C1C[C@H](O)[C@](C)(O)[C@H]3CC[C@@](C)(O)[C@H](CC/C(C)=C/[C@@H]12)O3
[1]
  Activity: inactive

## COC(=O)[C@]12CC(=O)[C@H](C(C)C)CC(=O)/C(C)=C/CC/C(C)=C/C(=O)[C@H]1CC(C)=C1C[C@H](OC(C)=O)[C@](C)(O)[C@H]3CC[C@@](C)(O)[C@H](CC/C(C)=C/[C@@H]12)O3
[1]
  Activity: inactive

## COC(=O)[C@]12CC(=O)[C@H](C(C)C)CC(=O)/C(C)=C/CC/C(C)=C\C(=O)[C@H]1CC(C)=C1C[C@H](OC(C)=O)[C@](C)(O)[C@H]3CC[C@@](C)(O)[C@H](CC/C(C)=C/[C@@H]12)O3 [BISGLAUCUMLIDE C]
[2]
  IC50: 33.7 µM

## COC(=O)[C@]12CC(=O)[C@H](C(C)C)CC(=O)/C(C)=C\CC/C(C)=C\C(=O)[C@H]1CC(C)=C1C[C@H](OC(C)=O)[C@](C)(O)[C@H]3CC[C@@](C)(O)[C@H](CC/C(C)=C/[C@@H]12)O3 [BISGLAUCUMLIDE D]
[2]
  IC50: 42.3 µM
